Entries after “also recorded” stand apart in the source; their conditions may differ.
Experiments:
TxtE-BM3R [1] = biological target: T1, TxtE-BM3R (UniProt C9ZDC6+P14779); assay: Substrate binding affinity by UV-Vis spectral titration, TxtE-BM3R; set-up: species or system S. scabies 87.22 / B. megaterium ATCC 14581; conditions: for binding affinity lowered compared with native substrate L-tryptophan: TxtE-BM3R; for Kd: […] enzyme, 25 mM Tris-HCl pH 8.0, for 4-F-DL-tryptophan total concentration of the racemic mixture used; for binding affinity to TxtE-BM3R compared with TxtE: tighter/higher than to TxtE
T1 construct: P450BM3 (CYP102A1) reductase domain BM3R with its Domcut-predicted native linker, from B. megaterium ATCC 14581 (GenBank J04832.1); made in house; host or cells: E. coli BL21 (DE3)-GOLD
Description: (§1) Purified TxtE and its fusion enzymes were spectrally analyzed following a previous protocol (Ding et al. 2008). Briefly, the absorbance spectra (400-600 nm) of TxtE variants (3 M) in Tris-HCl (25 mM, pH 8) buffer were recorded with a Shimadzu UV2700 dual beam UV-Vis spectrophotometer. The ferric heme of enzymes was then saturated with carbon monoxide (Airgas) through bubbling and the spectra of the saturated enzyme solutions were recorded. Immediately, sodium dithionite solution (30 μL, 0.5 M) was added to reduce ferric ion, and reduced spectra were taken subsequently. CO reduced difference spectra of all enzymes were created by subtracting the CO binding spectra from the reduced spectra. Data were further analyzed by GraphPad Prism 4. […] Not more than 10 μl of substrate stock solutions prepared in the above buffer were added to the sample cuvette with an interval of 0.5 μl, and the spectra were recorded from 300 nm to 500 nm each time. The equal volume of buffer was added to the reference cuvette. The changes in absorbance (ΔA) were determined by subtracting the absorbance at ˜420 nm from that at ˜390 nm. Data were then fitted to Michaelis-Menten equation using GraphPad Prism 4.
as §1, with “previous protocol.” for “previous protocol (Ding et al. 2008).”, “(3 μM)” for “(3 M)”, “to the” for “to Michaelis-Menten”, “equation of ΔA=ΔAmax[L]/(Kd+[L])” for “equation”

TxtE [2] = biological target: T2, TxtE (Streptomyces scabiei, UniProt C9ZDC6); set-up: inferred from the pET28 vector and Ni-NTA purification) (C); made in house; host or cells: E. coli BL21 (DE3)-GOLD; conditions: previous studies (Barry et al. 2012; Dodani et al. 2014); cited from earlier work
TxtE [3] = biological target: T2, TxtE; assay: Binding affinities of L-tryptophan and substituted tryptophan analogs (FIG. 29A)
Description: Binding affinities and relative nitration conversions for L-tryptophan and several substituted tryptophan analogs were also assessed (FIGS. 29A-29B). […] Furthermore, the nitration activity of TxtE and TxtEBM3R was assessed. In addition to substrate, enzyme reactions typically contained NADP+, an NADPH regeneration system (glucose and glucose dehydrogenase, GDH), spinach ferredoxin (Fer) and ferredoxin reductase (Frd) as redox partners, and 3-[2-hydroxy-1-(l-methylethyl)-2-nitrosohydrazinyl]-1-propanamine (NOC-5) as an NO donor. Reverse-phase UHPLC coupled with a PDA detector and liquid chromatography-mass spectrometry (LC-MS, ESI positive) was employed to detect the nitrated products (FIG. 29B).

TxtE [4] = biological target: T2, TxtE; assay: Substrate binding affinity by UV-Vis spectral titration, wild type TxtE; set-up: inferred from the pET28 vector and Ni-NTA purification) (C); made in house; host or cells: E. coli BL21 (DE3)-GOLD; species or system S. scabies 87.22; conditions: […] enzyme, 25 mM Tris-HCl pH 8.0
Description: as §1, with “The equal volume of buffer was added to the reference cuvette.” left out, “Data were then fitted to Michaelis-Menten equation using GraphPad Prism 4.” left out
(§2) Purified TxtE and its fusion enzymes were spectrally analyzed following a previous protocol. Briefly, the absorbance spectra (400-600 nm) of TxtE variants (3 μM) in Tris-HCl (25 mM, pH 8) buffer were recorded with a Shimadzu UV2700 dual beam UV-Vis spectrophotometer. […] Data were further analyzed by GraphPad Prism 4. […]

TxtE-RhFRed [5] = biological target: T3, TxtE-RhFRed (Streptomyces scabiei, UniProt C9ZDC6); assay: Substrate binding affinity by UV-Vis spectral titration, TxtE-RhFRed; set-up: species or system S. scabies 87.22; conditions: […] enzyme, 25 mM Tris-HCl pH 8.0
T3 sequence (C9ZDC6 1-406): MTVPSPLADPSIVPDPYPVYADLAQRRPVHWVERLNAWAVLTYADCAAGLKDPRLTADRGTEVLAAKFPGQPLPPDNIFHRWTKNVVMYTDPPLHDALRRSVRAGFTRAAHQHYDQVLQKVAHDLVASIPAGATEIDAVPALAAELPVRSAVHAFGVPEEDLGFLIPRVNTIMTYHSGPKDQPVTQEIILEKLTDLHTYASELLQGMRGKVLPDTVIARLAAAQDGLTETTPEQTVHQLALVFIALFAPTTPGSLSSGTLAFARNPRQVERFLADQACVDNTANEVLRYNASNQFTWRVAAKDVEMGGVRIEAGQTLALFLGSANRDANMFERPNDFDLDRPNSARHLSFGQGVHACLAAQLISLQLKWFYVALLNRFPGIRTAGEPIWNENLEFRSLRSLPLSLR
T3 sequence (Q8KU27 445-773 partner): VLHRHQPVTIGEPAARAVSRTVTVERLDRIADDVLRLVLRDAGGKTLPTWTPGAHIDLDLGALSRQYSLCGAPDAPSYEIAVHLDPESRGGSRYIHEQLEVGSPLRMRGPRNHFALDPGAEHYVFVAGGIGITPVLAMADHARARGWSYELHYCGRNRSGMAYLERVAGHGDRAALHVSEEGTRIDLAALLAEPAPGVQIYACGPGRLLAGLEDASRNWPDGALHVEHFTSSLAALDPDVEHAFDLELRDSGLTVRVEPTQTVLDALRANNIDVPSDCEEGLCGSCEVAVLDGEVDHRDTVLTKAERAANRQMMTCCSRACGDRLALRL
Description: as §1, with “The equal volume of buffer was added to the reference cuvette.” left out, “Data were then fitted to Michaelis-Menten equation using GraphPad Prism 4.” left out
as §2

TxtE-RhFRed [6] = biological target: T3, TxtE-RhFRed; assay: Substrate binding affinity by UV-Vis spectral titration, TxtE-RhFRed*; set-up: species or system S. scabies 87.22; conditions: […] enzyme, 25 mM Tris-HCl pH 8.0
Description: as §1, with “The equal volume of buffer was added to the reference cuvette.” left out, “Data were then fitted to Michaelis-Menten equation using GraphPad Prism 4.” left out
as §2

TxtE-BM3R [7] = biological target: T4, TxtE-BM3R (UniProt C9ZDC6); assay: Substrate binding affinity by UV-Vis spectral titration, TxtE-BM3R; set-up: species or system S. scabies 87.22 / B. megaterium ATCC 14581; conditions: Kd, […] enzyme, 25 mM Tris-HCl pH 8.0; for 4-F-DL-tryptophan total concentration of the racemic mixture used
T4 construct: P450BM3 (CYP102A1) reductase domain BM3R with its Domcut-predicted native linker, from B. megaterium ATCC 14581 (GenBank J04832.1); made in house; host or cells: E. coli BL21 (DE3)-GOLD
Description: as §1
as §1, with “previous protocol.” for “previous protocol (Ding et al. 2008).”, “(3 μM)” for “(3 M)”, “to the” for “to Michaelis-Menten”, “equation of ΔA=ΔAmax[L]/(Kd+[L])” for “equation”

[8] = Stability of NO donor NOC-5 at different pH values and temperatures; assay type: physicochemical
Description: The stability of NO donor NOC-5 was first examined. Its solution was incubated at different pH value (4.5 to 9.5) and temperatures (4 to 65° C.) for 30 min. It was then used as NO donor in the P450 nitration reactions. […] To determine pH effects on the activity of TxtE and TxtEBM3R, enzyme (1.5 μM) reactions were performed in 100 mM Tris-Cl or sodium phosphate with various pH values (4.5 to 9.5) at 20° C., 300 rpm for 30 min. To determine enzyme pH stability, 5 μL of 30 μM enzyme solutions were incubated at buffers with different pH value (4.5 to 9.5). After 15 minutes, other reaction components (95 μL) were mixed to initiate nitration reactions as described above. […] Products were quantitated by HPLC as described above. Conversion rate (%) was calculated by the equation of the area of under the 4-nitro-l-tryptophan peak/the total areas of both substrate and product peaks*100. […]
The stability of NO donor NOC-5 was first examined by incubating it in solutions of different pH values (4.5 to 9.5) and temperatures (4 to 65° C.) for 30 min. […] Products were quantitated by HPLC as described above. Peak area was determined with software installed in the Shimadzu Prominence UHPLC system. Conversion rate (%) was calculated as product (nmol)/product+substrate (nmol)×100 based on the standard curves of Trp and 4-NO2-Trp generated. […]

## N[C@@H](Cc1c[nH]c2ccc(F)cc12)C(=O)O [5-F-L-tryptophan, 5-F-l-tryptophan]
TxtE-BM3R [1]
  binding affinity lowered compared with native substrate L-tryptophan: ~3 times
  Kd: 84.2 ± 4.37 µM
  binding affinity to TxtE-BM3R compared with TxtE: slightly tightened
TxtE-BM3R [1]; listed as 5-F-l-tryptophan
  Kd: 84.2 ± 4.4 µM

## N[C@H](Cc1c[nH]c2ccccc12)C(=O)O [D-tryptophan]
TxtE [2]
  spectral changes induced in TxtE solution: unable to induce spectral changes

## O=C(O)C(=O)Cc1c[nH]c2ccccc12 [indole-3-pyruvate]
TxtE [3]
  binding affinity relative to L-tryptophan (FIG. 29A): significantly weakened interactions

## N[C@H](CO)Cc1c[nH]c2ccccc12 [L-tryptophanol]
TxtE [3]
  binding affinity relative to L-tryptophan (FIG. 29A): significantly weakened interactions

## NC(Cc1c[nH]c2cccc(F)c12)C(=O)O (racemic) [4-F-DL-tryptophan, 4-F-dl-tryptophan]
TxtE-BM3R [1]
  binding affinity lowered compared with native substrate L-tryptophan: about 8 times
  Kd: 189 ± 11.1 µM
  binding affinity to TxtE-BM3R compared with TxtE: slightly tightened

## C[C@](N)(Cc1c[nH]c2ccccc12)C(=O)O [α-Me-Trp]
TxtE [3]
  binding affinity relative to L-tryptophan (FIG. 29A): significantly weakened interactions

## N[C@@H](Cc1c[nH]c2ccccc12)C(=O)O [L-tryptophan]
TxtE [4]
  Kd: 24.8 µM
TxtE-RhFRed [5]
  Kd: 18.2 µM
TxtE-RhFRed [6]
  Kd: 24.3 µM
TxtE-BM3R [7]
  Kd: 20.8 µM

## CC(C)N(CCCN)/[N+]([O-])=N/O [NOC-5, 3-(Aminopropyl)-1-hydroxy-3-isopropyl-2-oxo-1-triazene]
[8]; 4 to 65° C., 30 min
  stability at temperatures higher than 25° C.: decomposed quickly and significantly
[8]; pH 4.5 to 9.5, 30 min
  stability at different pH values: stable in all tested pH values; also recorded: stable over a broad pH range; also recorded: stable at all tested pH values

— patent US10550079B2, “Artificial self-sufficient cytochrome P450s” (University of Florida Research Foundation, Incorporated, priority 2015, dated 2020)
